In article PMC12693701, “Glucosinolate-Derived Metabolites from Barbarea vulgaris (Brassicaceae): Evaluation of Antimicrobial, Antioxidant, and Anti-Inflammatory Potentials” (Molecules, 2025):

Legend:
[1] = target: T1, Type I-B soybean lipoxygenase (Glycine max, UniProt P08170); experiment: LOX inhibition assay; assay type: biochemical; conditions: 100 µM; mean ± SD; read-out: Percentage of LOX Inhibition
T1 sequence (P08170 1-839): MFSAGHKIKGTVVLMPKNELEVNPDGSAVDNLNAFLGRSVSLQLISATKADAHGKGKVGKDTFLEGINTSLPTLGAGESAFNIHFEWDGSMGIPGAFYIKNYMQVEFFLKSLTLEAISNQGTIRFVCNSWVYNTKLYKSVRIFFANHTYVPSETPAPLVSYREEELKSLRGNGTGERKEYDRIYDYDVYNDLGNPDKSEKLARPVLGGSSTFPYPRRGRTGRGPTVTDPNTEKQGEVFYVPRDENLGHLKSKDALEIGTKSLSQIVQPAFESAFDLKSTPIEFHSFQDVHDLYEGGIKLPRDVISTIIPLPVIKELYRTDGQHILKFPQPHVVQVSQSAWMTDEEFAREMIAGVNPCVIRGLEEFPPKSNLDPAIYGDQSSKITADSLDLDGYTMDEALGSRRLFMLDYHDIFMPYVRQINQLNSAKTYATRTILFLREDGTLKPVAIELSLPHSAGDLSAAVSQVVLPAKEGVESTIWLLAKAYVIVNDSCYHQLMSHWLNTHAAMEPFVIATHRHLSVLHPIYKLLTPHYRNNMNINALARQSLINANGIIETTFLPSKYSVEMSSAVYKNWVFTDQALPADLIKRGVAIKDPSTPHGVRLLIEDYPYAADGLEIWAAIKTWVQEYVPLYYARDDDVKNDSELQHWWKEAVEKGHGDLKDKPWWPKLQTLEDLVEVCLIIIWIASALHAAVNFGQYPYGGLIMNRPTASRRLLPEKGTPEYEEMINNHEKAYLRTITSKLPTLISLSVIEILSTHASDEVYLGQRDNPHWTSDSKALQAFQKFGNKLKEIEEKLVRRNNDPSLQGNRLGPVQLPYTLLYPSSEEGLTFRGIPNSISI
Experimental: Type I-B soybean lipoxygenase is a commonly used enzyme for studying the anti-inflammatory properties of various compounds [19]. The lipoxygenase (LOX) inhibition assay measures the enzyme’s ability to convert sodium linoleate to 13-hydroperoxylinoleic acid. The inhibition of the enzyme by the investigated compounds was determined by measuring the absorbance at 234 nm for each prepared sample. Specifically, the test compound, Tris buffer, an enzyme solution (5 × 10^3 units/mL in saline), and sodium linoleate (3 mM in Tris buffer, pH 9), were added to a UV cuvette, and the absorbance was recorded. […] All measurements were performed in triplicate.

[2] = DPPH radical scavenging assay; conditions: mean ± SD
Experimental: The DPPH assay was used to assess the ability of the tested compounds to scavenge reactive radical species. Stock solutions of the investigated compounds were prepared in DMSO and then diluted with methanol to a final volume of 1000 µL. An equal volume of a 50 µM DPPH solution in methanol was then added to the prepared mixture. The final concentrations of the test compounds were 25, 50, and 100 µM. After thorough mixing, the samples were incubated in the dark at room temperature for 20 to 60 min. Methanol was used as a blank, and absorbance was measured at 517 nm after incubation. All measurements were performed in triplicate.

[3] = tested on: S. enterica; experiment: Inhibition of biofilm formation (crystal violet); assay type: cell-based, Salmonella enterica; conditions: biofilm coverage reduced by 90%
Experimental: (§1) The procedure involved preparing 96-well microtiter plates (Sarstedt, Nümbrecht, Germany) by adding 100 μL of Mueller-Hinton nutrient broth to each well. A 10 μL aliquot of bacterial suspension (adjusted to 1.0 McFarland for Gram-positive bacteria and 0.5 McFarland for Gram-negative bacteria) was added to the wells. The plates were then incubated at 37 °C for 48 h to allow biofilm formation. After incubation, the wells were washed twice with 200 μL of sterile 0.85% saline to remove non-adherent and weakly adherent cells. Biofilms formed by the adherent bacteria were fixed with 100 μL of methanol until fully evaporated. The biofilms were then stained using 0.1% (w/v) crystal violet (Fluka Chemie AG, Buchs, Switzerland) and left at room temperature for 20 min. After staining, excess dye was washed off with deionized water, followed by 96% ethanol. Controls included wells containing only nutrient broth to check for sterility and nonspecific binding. Background absorbance from the sterile medium, fixative, and dye was subtracted from the OD readings of the test samples. All experiments were performed in triplicate.
(§2) To assess the inhibition of biofilm formation, 96-well microtiter plates (Sarstedt, Nümbrecht, Germany) were prepared by dispensing 100 μL of Mueller-Hinton broth into each well. From stock solutions of tested compounds (at 10 mg/mL), 100 μL was added to the first row of the plate, followed by twofold serial dilutions (from 5 to 0.039 mg/mL) using a multichannel pipette (Eppendorf AG, Hamburg, Germany). Subsequently, 10 μL of fresh bacterial suspension (adjusted to 0.5 McFarland for Gram-negative and 1.0 McFarland for Gram-positive bacteria) was added to each well. The plates were incubated at 37 °C for 48 h. After incubation, the contents of the wells were carefully removed by tapping, and the remainder of the experiment was conducted following the procedure described above.
(§3) Controls consisted of wells containing only broth or broth with the tested compounds to assess sterility and nonspecific binding. Background absorbance was subtracted from test readings as described earlier. All experiments were performed in triplicate, and tetracycline (Sigma-Aldrich, St. Louis, MO, USA), dissolved in nutrient broth, was used as a reference compound.

[4] = tested on: P. mirabilis; experiment: Inhibition of biofilm formation (crystal violet); assay type: cell-based, Proteus mirabilis
Experimental: as §1, §2, §3

[5] = tested on: S. aureus ATCC 25923; experiment: Inhibition of biofilm formation (crystal violet); assay type: cell-based, Staphylococcus aureus
Experimental: as §1, §2, §3

[6] = tested on: B. subtilis ATCC 6633; experiment: Inhibition of biofilm formation (crystal violet); assay type: cell-based, Bacillus subtilis
Experimental: as §1, §2, §3

[7] = tested on: K. pneumoniae; experiment: Inhibition of biofilm formation (crystal violet); assay type: cell-based, Klebsiella pneumoniae
Experimental: as §1, §2, §3

[8] = biofilm coverage reduced by 50%
[9] = biofilm coverage reduced by 90%

Structure (SMILES)	inhibition at 100 µM [1] [%]	DPPH Scavenging Ability ([2]; 25 µM, 20 min) [%]	DPPH Scavenging Ability ([2]; 25 µM, 60 min) [%]	DPPH Scavenging Ability ([2]; 50 µM, 20 min) [%]	DPPH Scavenging Ability ([2]; 50 µM, 60 min) [%]	DPPH Scavenging Ability ([2]; 100 µM, 20 min) [%]	DPPH Scavenging Ability ([2]; 100 µM, 60 min) [%]	BIC90 [3] [µg/mL]	BIC50 [4, 8] [µg/mL]	BIC90 [4, 9] [µg/mL]	BIC50 [5, 8] [µg/mL]	BIC90 [5, 9] [µg/mL]	BIC50 [6, 8]	BIC90 [6, 9] [µg/mL]	BIC50 [7, 8] [µg/mL]	BIC90 [7, 9] [µg/mL]
O=c1c(O)c(-c2ccc(O)c(O)c2)oc2cc(O)cc(O)c12 [Quercetin, reference compound]	92 ± 0.9	95.3 ± 0.8	95.1 ± 0.9	96.8 ± 1.0	96.5 ± 0.9	95.1 ± 0.9	95.4 ± 0.8	–	–	–	–	–	–	–	–	–
CN(C)[C@@H]1C(O)=C(C(N)=O)C(=O)[C@@]2(O)C(O)=C3C(=O)c4c(O)cccc4[C@@](C)(O)[C@H]3C[C@@H]12 [Tetracycline, reference compound]	–	–	–	–	–	–	–	180	320	>1000	250	300	˂15.6 µg/mL	15.6	6	125
